In patent US8614208B2, “Fused heterocyclic ring derivative and use thereof” (Takeda Pharmaceutical Company Limited, priority 2009, dated 2013):

These compounds were tested against T1, Smo (Mus musculus, UniProt P56726) (assay: Gli reporter luciferase assay in NIH-3T3/Gli reporter cells stimulated with mouse Shh-N end fragment). Settings: NIH3T3; 1 μM compound; NIH-3T3/Gli reporter cells with mouse Shh-N culture supernatant, 48 hr; luciferase activity, control without compound as 100; read-out: inhibitory rate (%) at 1 μM.
T1 construct: endogenous in cells; host or cells: NIH-3T3 cells stably carrying the Gli reporter plasmid
T1 sequence (P56726 33-793): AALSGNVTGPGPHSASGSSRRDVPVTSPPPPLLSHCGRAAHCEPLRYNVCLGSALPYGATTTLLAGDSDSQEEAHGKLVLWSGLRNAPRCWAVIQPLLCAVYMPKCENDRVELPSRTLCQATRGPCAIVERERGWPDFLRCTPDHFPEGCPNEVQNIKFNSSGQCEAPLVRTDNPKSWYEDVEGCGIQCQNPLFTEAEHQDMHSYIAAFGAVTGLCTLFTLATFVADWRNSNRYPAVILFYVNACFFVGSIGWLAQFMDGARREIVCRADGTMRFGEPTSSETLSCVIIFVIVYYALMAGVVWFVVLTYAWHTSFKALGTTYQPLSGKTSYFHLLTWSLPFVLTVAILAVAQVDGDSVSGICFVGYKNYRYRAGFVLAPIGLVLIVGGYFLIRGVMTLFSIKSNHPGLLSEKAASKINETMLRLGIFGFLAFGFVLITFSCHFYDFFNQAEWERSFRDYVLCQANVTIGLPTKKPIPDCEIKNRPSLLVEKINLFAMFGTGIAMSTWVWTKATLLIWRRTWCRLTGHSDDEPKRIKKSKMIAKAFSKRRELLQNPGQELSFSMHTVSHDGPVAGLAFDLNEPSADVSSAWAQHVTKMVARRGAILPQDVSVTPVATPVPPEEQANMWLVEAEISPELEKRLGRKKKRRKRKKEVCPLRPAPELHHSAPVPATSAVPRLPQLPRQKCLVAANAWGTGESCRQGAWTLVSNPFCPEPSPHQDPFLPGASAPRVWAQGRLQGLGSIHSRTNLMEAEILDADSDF
Type: cell-based
Description: Gli reporter plasmid was constructed by inserting 8×Gli-binding site and chicken δ-crystalline promoter into the upstream of luc+ of pGL3 (Promega).
prepared in reference to the base sequence described in GenBank accession No.; X02187, and chicken genome DNA (Clontech) as a template. PCR reaction was performed using Pfu Turbo (Stratagene) and following the attached protocol. The obtained 108 bp fragment was digested with restriction enzymes BglII and HindIII, and inserted into BglII-HindIII site of pGL3 to give plasmid pGL3/δ-cry promoter.
As 8×Gli-binding site, a sequence containing eight 9-bp Gli bound consensus sequences (GACCACCCA) described in Yoon et al., J. Biol. Chem., vol. 273, pages 3496-3501 (1998) was prepared from synthetic DNA. That is, two synthetic DNAs,
were heat treated at 95° C. for 2 minutes, and incubated at 37° C. for 1 hr for annealing to give a double stranded DNA of the above-mentioned two synthetic DNAs. The obtained double stranded DNA was digested with restriction enzymes BglII and KpnI, and the obtained DNA fragment was inserted into BglII-KpnI site of pGL3/δ-cry promoter to construct plasmid pGL3/δ-cry promoter, 8×Gli binding site, i.e., Gli reporter plasmid.
HEK293 cells were grown in D-MEM medium (Invitrogen) containing 10% fetal bovine serum in a 10 cm dish and pcDNA3.1/mShh-N was introduced into the cells using FuGENE6 (Roche Applied Science). Thereafter, the HEK293 cells were cultured in a carbon dioxide gas incubator at 37° C. for 24 hours, and the medium was exchanged with D-MEM medium (Invitrogen) containing 2% fetal bovine serum. After culturing for 48 hr, a culture supernatant containing recombinant type mouse Shh-N end fragment was obtained by filtration using a filter ([…]).
Using D-MEM (Invitrogen) containing 10% fetal bovine serum, expression plasmid pcDNA3.1 and Gli reporter plasmid (pGL3/δ-cry promoter, 8×Gli binding site) produced by the method of Experimental Example 1 were introduced into NIH-3T3 cells grown in a 10 cm dish by the use of FuGENE6 (Roche Applied Science).
After culture for 24 hr, the cells were recovered, suspended in D-MEM medium containing 10% fetal bovine serum and supplemented with Geneticin (Life Technologies Oriental, Inc.) to a final concentration of 500 μg/ml, diluted to 10^4 cells/ml, plated on a 96 well plate, and cultured in a carbon dioxide gas incubator at 37° C. to give Geneticin resistant transformed cell line.
The obtained transformed cell line was cultured in a 96 well plate, mouse Shh-N end fragment obtained in Experimental Example 3 was added, and NIH-3T3/Gli reporter cell, which is a cell line capable of induction of luciferase expression, was selected.
NIH-3T3/Gli reporter cells cultured in D-MEM (Invitrogen) containing 10% fetal bovine serum were plated in a 96 well white plate at 1×10^4 cells/well, and cultured overnight in a carbon dioxide gas incubator at 37° C. The medium was removed, a compound (50 μl) and culture supernatant of mouse Shh-N end fragment-expressing HEK293 (D-MEM medium containing 2% fetal bovine serum, 50 μl) were added, and the cells were cultured for 48 hr in a carbon dioxide gas incubator at 37° C. Bright-Glo (Promega, 50 μl) was added, and the mixture was stirred, after which luciferase activity was measured by EnVision (PerkinElmer). The inhibition rate was calculated based on the luciferase activity of the control without addition of the compound as 100.
Compound `Cc1nc2c(c(OCC(F)(F)F)c(C(=O)NC3CCN(C(=O)CO)CC3)n2C)c(=O)n1Cc1ccc(Cl)cc1` [Example 9, 3-(4-chlorobenzyl)-N-[1-(hydroxyacetyl)piperidin-4-yl]-2,7-dimethyl-4-oxo-5-(2,2,2-trifluoroethoxy)-4,7-dihydro-3H-pyrrolo[2,3-d]pyrimidine-6-carboxamide] has an inhibition at 1 µM of 95%.
`CCOc1c(C(=O)NC2CCN(C(=O)CO)CC2)n(C)c2nc(C)n(CC(=O)c3ccccc3)c(=O)c12` [Example 2, 5-ethoxy-N-[1-(hydroxyacetyl)piperidin-4-yl]-2,7-dimethyl-4-oxo-3-(2-oxo-2-phenylethyl)-4,7-dihydro-3H-pyrrolo[2,3-d]pyrimidine-6-carboxamide] showed an inhibition at 1 µM of 95%.
`CCOc1c(C(=O)NC2CCN(C(=O)CO)CC2)sc2nc(C)n(CC(=O)c3ccccc3)c(=O)c12` [Example 18, 5-ethoxy-N-[1-(hydroxyacetyl)piperidin-4-yl]-2-methyl-4-oxo-3-(2-oxo-2-phenylethyl)-3,4-dihydrothieno[2,3-d]pyrimidine-6-carboxamide] gave an inhibition at 1 µM of 97%.
In the case of `CCc1nc2c(c(OCC(F)(F)F)c(C(=O)NC3CCN(C(=O)CO)CC3)n2C)c(=O)n1Cc1cccc(Cl)c1` [Example 17, 3-(3-chlorobenzyl)-2-ethyl-N-[1-(hydroxyacetyl)piperidin-4-yl]-7-methyl-4-oxo-5-(2,2,2-trifluoroethoxy)-4,7-dihydro-3H-pyrrolo[2,3-d]pyrimidine-6-carboxamide], the inhibition at 1 µM is reported as 98%.
`CCc1nc2c(c(OCC(F)(F)F)c(C(=O)NC3CCN(C(=O)CO)CC3)n2C)c(=O)n1CC(=O)c1ccc(F)cc1` [Example 33, 2-ethyl-3-[2-(4-fluorophenyl)-2-oxoethyl]-N-[1-(hydroxyacetyl)piperidin-4-yl]-7-methyl-4-oxo-5-(2,2,2-trifluoroethoxy)-4,7-dihydro-3H-pyrrolo[2,3-d]pyrimidine-6-carboxamide] gave an inhibition at 1 µM of 96%.
In the case of `CCc1nc2c(c(OC(C)C)c(C(=O)NC3CCN(C(=O)CO)CC3)n2C)c(=O)n1CC(=O)c1ccccc1` [Example 22, 2-ethyl-N-[1-(hydroxyacetyl)piperidin-4-yl]-7-methyl-5-(1-methylethoxy)-4-oxo-3-(2-oxo-2-phenylethyl)-4,7-dihydro-3H-pyrrolo[2,3-d]pyrimidine-6-carboxamide], the inhibition at 1 µM is reported as 98%.
For `Cc1nc2c(c(OC(C)C)c(C(=O)NC3CCN(C(=O)CO)CC3)n2C)c(=O)n1-c1ccccc1` [Example 29, N-[1-(hydroxyacetyl)piperidin-4-yl]-2,7-dimethyl-5-(1-methylethoxy)-4-oxo-3-phenyl-4,7-dihydro-3H-pyrrolo[2,3-d]pyrimidine-6-carboxamide], the inhibition at 1 µM was 99%.
With `Cc1nc2c(c(OCC(F)(F)F)c(C(=O)NC3CCN(C(=O)CO)CC3)n2C)c(=O)n1CC(=O)c1ccccc1` [Example 1, N-[1-(hydroxyacetyl)piperidin-4-yl]-2,7-dimethyl-4-oxo-3-(2-oxo-2-phenylethyl)-5-(2,2,2-trifluoroethoxy)-4,7-dihydro-3H-pyrrolo[2,3-d]pyrimidine-6-carboxamide] the inhibition at 1 µM was 98%.
With `COc1ccccc1Cn1c(C)nc2c(c(OCC(F)(F)F)c(C(=O)NC3CCN(C(=O)CO)CC3)n2C)c1=O` [Example 8, N-[1-(hydroxyacetyl)piperidin-4-yl]-3-(2-methoxybenzyl)-2,7-dimethyl-4-oxo-5-(2,2,2-trifluoroethoxy)-4,7-dihydro-3H-pyrrolo[2,3-d]pyrimidine-6-carboxamide] the inhibition at 1 µM was 96%.
Work on `CCc1nc2c(c(OCC(F)(F)F)c(C(=O)NC3CC[S+]([O-])CC3)n2C)c(=O)n1CC(=O)c1ccccc1` (centres unmarked) [Example 21, 2-ethyl-7-methyl-N-(1-oxidetetrahydro-2H-thiopyran-4-yl)-4-oxo-3-(2-oxo-2-phenylethyl)-5-(2,2,2-trifluoroethoxy)-4,7-dihydro-3H-pyrrolo[2,3-d]pyrimidine-6-carboxamide] yielded an inhibition at 1 µM of 97%.
Compound `Cc1nc2c(c(OCC(F)(F)F)c(C(=O)NC3CCN(C(=O)CO)CC3)n2C)c(=O)n1Cc1ccccc1Cl` [Example 14, 3-(2-chlorobenzyl)-N-[1-(hydroxyacetyl)piperidin-4-yl]-2,7-dimethyl-4-oxo-5-(2,2,2-trifluoroethoxy)-4,7-dihydro-3H-pyrrolo[2,3-d]pyrimidine-6-carboxamide] has an inhibition at 1 µM of 95%.
Compound `Cc1nc2c(c(OCC(F)(F)F)c(C(=O)NC3CCN(C(=O)CO)CC3)n2C)c(=O)n1CCc1ccccc1` [Example 12, N-[1-(hydroxyacetyl)piperidin-4-yl]-2,7-dimethyl-4-oxo-3-(2-phenylethyl)-5-(2,2,2-trifluoroethoxy)-4,7-dihydro-3H-pyrrolo[2,3-d]pyrimidine-6-carboxamide] has an inhibition at 1 µM of 98%.
`CCc1nc2c(c(OC(C)C)c(C(=O)NC3CCN(C(=O)CO)CC3)n2C)c(=O)n1CC(=O)c1ccc(F)cc1` [Example 34, 2-ethyl-3-[2-(4-fluorophenyl)-2-oxoethyl]-N-[1-(hydroxyacetyl)piperidin-4-yl]-7-methyl-5-(1-methylethoxy)-4-oxo-4,7-dihydro-3H-pyrrolo[2,3-d]pyrimidine-6-carboxamide] gave an inhibition at 1 µM of 97%.
In the case of `CCc1nc2c(c(OCC(F)(F)F)c(C(=O)NC3CCOCC3)n2C)c(=O)n1CC(=O)c1ccccc1` [Example 16, 2-ethyl-7-methyl-4-oxo-3-(2-oxo-2-phenylethyl)-N-(tetrahydro-2H-pyran-4-yl)-5-(2,2,2-trifluoroethoxy)-4,7-dihydro-3H-pyrrolo[2,3-d]pyrimidine-6-carboxamide], the inhibition at 1 µM is reported as 97%.
`Cc1nc2c(c(OCC(F)(F)F)c(C(=O)NC3CCN(C(=O)CO)CC3)n2C)c(=O)n1CCc1ccc(F)cc1` [Example 15, 3-[2-(4-fluorophenyl)ethyl]-N-[1-(hydroxyacetyl)piperidin-4-yl]-2,7-dimethyl-4-oxo-5-(2,2,2-trifluoroethoxy)-4,7-dihydro-3H-pyrrolo[2,3-d]pyrimidine-6-carboxamide] showed an inhibition at 1 µM of 97%.
`CCc1nc2c(c(OCC(F)(F)F)c(C(=O)NC3CCN(C(=O)CO)CC3)n2C)c(=O)n1CC(=O)c1ccccc1` [Example 13, 2-ethyl-N-[1-(hydroxyacetyl)piperidin-4-yl]-7-methyl-4-oxo-3-(2-oxo-2-phenylethyl)-5-(2,2,2-trifluoroethoxy)-4,7-dihydro-3H-pyrrolo[2,3-d]pyrimidine-6-carboxamide] was tested, and the inhibition at 1 µM was 97%.
With `Cc1nc2c(c(OCC(F)(F)F)c(C(=O)NC3CCN(C(=O)CO)CC3)n2C)c(=O)n1Cc1ccccc1` [Example 4, 3-benzyl-N-[1-(hydroxyacetyl)piperidin-4-yl]-2,7-dimethyl-4-oxo-5-(2,2,2-trifluoroethoxy)-4,7-dihydro-3H-pyrrolo[2,3-d]pyrimidine-6-carboxamide] the inhibition at 1 µM was 98%.
`COc1cccc(Cn2c(C)nc3c(c(OCC(F)(F)F)c(C(=O)NC4CCN(C(=O)CO)CC4)n3C)c2=O)c1` [Example 6, N-[1-(hydroxyacetyl)piperidin-4-yl]-3-(3-methoxybenzyl)-2,7-dimethyl-4-oxo-5-(2,2,2-trifluoroethoxy)-4,7-dihydro-3H-pyrrolo[2,3-d]pyrimidine-6-carboxamide] showed an inhibition at 1 µM of 97%.
`CCCCCn1c(C)nc2c(c(OCC(F)(F)F)c(C(=O)NC3CCN(C(=O)CO)CC3)n2C)c1=O` [Example 11, N-[1-(hydroxyacetyl)piperidin-4-yl]-2,7-dimethyl-4-oxo-3-pentyl-5-(2,2,2-trifluoroethoxy)-4,7-dihydro-3H-pyrrolo[2,3-d]pyrimidine-6-carboxamide] was tested, and the inhibition at 1 µM was 96%.
For `Cc1nc2c(c(OCC(F)(F)F)c(C(=O)NC3CCN(C(=O)CO)CC3)n2C)c(=O)n1Cc1cccc(Cl)c1` [Example 10, 3-(3-chlorobenzyl)-N-[1-(hydroxyacetyl)piperidin-4-yl]-2,7-dimethyl-4-oxo-5-(2,2,2-trifluoroethoxy)-4,7-dihydro-3H-pyrrolo[2,3-d]pyrimidine-6-carboxamide], the inhibition at 1 µM was 98%.
